Results published in patent US9452992B2 (priority 2011, dated 2016).

System: VSV particles pseudotyped with EboV GP on CHO cells overexpressing NPC1
Format: cell-based, Chinese hamster

Compound	effect of NPC1 overexpression on antiviral activity
O=C(CC12CC3CC(CC(C3)C1)C2)NCC(=O)N1CCN(Cc2ccccc2)CC1 [3.0, 2-((3r,5r,7r)-adamantan-1-yl)-N-(2-(4-benzylpiperazin-1-yl)-2-oxoethyl)acetamide]	conferred resistance
COC(=O)c1ccc(COc2ccccc2CN2CCN(C(=O)CNC(=O)CC34CC5CC(CC(C5)C3)C4)CC2)cc1 [compound 3.48, methyl 4-((2-((4-(2-(2-((3r,5r,7r)-adamantan-1-yl)acetamido)acetyl)piperazin-1-yl)methyl)phenoxy)methyl)benzoate]	conferred resistance
